The values that follow are results of earlier work, collected in US20220184026A1, “COMPOSITIONS OF FULVIC ACID AND CANNABINOID AND USES THEREOF” (Omni Bioceutical Innovations, Inc., priority 2019, published 2022).

Where two headings read alike, the source gives them in different places.

The subject of this data set is chronic wounds. On the set-up: key: N.S. = not statistically significant.

Turning to basic fibroblast growth factor [bFGF], the Results result is, setting by setting: (Richard et al., diabetic wounds (n=17), 0.25 to 0.75 μg/cm^2 daily) “N.S”; (Robson et al., pressure wounds (n=50), 1, 5, and 10 μg/cm^2) “N.S”. On to “epidermal growth factor (NSDSECPLSHDGYCLHDGVCMYIEALDKYACNCVVGYIGERCQYRDLKWWELR; not fully specified; Epidermal growth factor; UniProt P01133 971-1023, looked up) [EGF]”, for which the Results entry (Falanga et al., venous wounds (n=44), 10 μg/mL twice per day) is listed as “N.S”. In the case of “granulocyte-macrophage colony-stimulating factor [GM-CSF]”, the Results result (da Costa et al., venous + arterial wounds (n=25), 400 μg injected once around the wound) is “N.S”. As for human growth hormone [HGH], the Results result (Rasmussen et al., venous wounds (n=37), 1 IU/cm^2 per week) was “N.S”. On to interleukin-1B [IL-1B], for which the Results entry (Robson et al., pressure wounds (n=25), 0.01, 0.1, and 1 μg/cm^2 daily) was “N.S”.
